Measured values as given in patent US11858905B1, “Cathepsin L inhibitors” (priority 2023, dated 2024).

Experiments:
SARS-CoV-2 PsVs = assay: microbe, parasite or virus in culture; type: cell-based; settings: for activity at 0.5 µM / activity at 5 µM: Severe acute respiratory syndrome coronavirus 2, Vero C1008, 24 h; for activity at 0.5 µM: read-out: % Infection rate at 500 nM; for activity at 5 µM: read-out: % Infection rate at 5 uM
human CatL = human CatL (Homo sapiens (Human), UniProt P07711); assay: Human Cathepsin L (CatL) enzymatic assay; type: biochemical; settings: CatL 0.05 nM, substrate 500 nM, pH 5.5; read-out: Enzymatic inhibition IC50
human CatL, sequence (P07711 whole entry, looked up): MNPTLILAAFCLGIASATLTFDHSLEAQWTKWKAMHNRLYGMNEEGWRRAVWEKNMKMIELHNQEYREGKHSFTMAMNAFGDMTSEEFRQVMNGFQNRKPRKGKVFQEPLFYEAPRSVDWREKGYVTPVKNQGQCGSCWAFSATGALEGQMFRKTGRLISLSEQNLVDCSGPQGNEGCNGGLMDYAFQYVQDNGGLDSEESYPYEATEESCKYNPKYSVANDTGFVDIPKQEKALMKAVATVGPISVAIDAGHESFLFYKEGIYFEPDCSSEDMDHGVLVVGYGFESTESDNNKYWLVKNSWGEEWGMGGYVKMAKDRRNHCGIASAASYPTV
Method: Human Cathepsin L (CatL) Enzymatic Assay
60 μL of the compounds were added to 384-well dilution plate. The compound solution was diluted for 1:3 in succession in DMSO for each column for 10 pts. 0.05 μL diluted compound solution was added in each row to 384 assay plates (Corning 4514) using Echo (LABCYTE 655), each column containing 2 replicates. 5 μL working solution of human CatL enzyme (Abcam #ab81780) was added to 384-well assay plate, centrifuge 1000 rpm for 1 min. The mixture was incubated at […] for 15 min, then add 5 μL working solution of CatL substrate (Genscript #C7360HB140_5) to initiate the reaction (CatL: 0.05 nM, Substrate: 500 nM). Incubate at […] for 30 min. Reading Ex370 nm and Em460 nm fluorescence signals with BMG CLARIO Star Plusaucu. Percent inhibition for each compound was calculated and IC50 (half maximal inhibitory concentration) was fitted from non-linear regression by XLfit 5.5.0.

RSV = RSV infected mice; cited from earlier work

Structure (SMILES) | protection of cells from pseudovirus infection at 500 nM (SARS-CoV-2 PsVs) | activity at 0.5 µM (SARS-CoV-2 PsVs) [%] | activity at 5 µM (SARS-CoV-2 PsVs) [%] | IC50 (human CatL) [nM] | airway hyperresponsiveness (RSV) | viral clearance (RSV)
COCCN1CC=C(c2ccc3nc(C[C@H](NC(=O)c4cc(C(C)(C)C)nn4C4CC4)C(=O)NCC#N)oc3c2)CC1 [Compound 45, (2S)-2-[(5-tert-butyl-2-cyclopropylpyrazol-3-yl)formamido]-N-(cyanomethyl)-3-{6-[1-(2-methoxyethyl)-3,6-dihydro-2H-pyridin-4-yl]-1,3-benzoxazol-2-yl}propanamide] | nearly full protection | 7 | 0.02 | 2.5 | – | –
COCCN1CC=C(c2ccc3nc(C[C@H](NC(=O)c4cc(C5(C)CC5)nn4C4CC4)C(=O)NC4(C#N)CC4)oc3c2)CC1 [Compound 46, (2S)—N-(1-cyanocyclopropyl)-2-{[2-cyclopropyl-5-(1-methylcyclopropyl)pyrazol-3-yl]formamido}-3-{6-[1-(2-methoxyethyl)-3,6-dihydro-2H-pyridin-4-yl]-1,3-benzoxazol-2-yl}propanamide] | nearly full protection | 7 | 0.08 | 1 | – | –
CC1(c2cc(C(=O)N[C@@H](Cc3nc4ccc(-c5ccnc(C(F)F)c5)cc4o3)C(=O)NC3(C#N)CC3)n(C3CC3)n2)CC1 [Compound 47, (S)—N-(1-((1-cyanocyclopropyl)amino)-3-(6-(2-(difluoromethyl)pyridin-4-yl)benzo[d]oxazol-2-yl)-1-oxopropan-2-yl)-1-cyclopropyl-3-(1-methylcyclopropyl)-1H-pyrazole-5-carboxamide] | – | 56 | 15.9 | 6.6 | – | –
CC1(c2cc(C(=O)N[C@@H](Cc3nc4ccc(-c5ccnc(C6CC6)c5)cc4o3)C(=O)NC3(C#N)CC3)n(C3CC3)n2)CC1 [Compound 48, (S)—N-(1-((1-cyanocyclopropyl)amino)-3-(6-(2-cyclopropylpyridin-4-yl)benzo[d]oxazol-2-yl)-1-oxopropan-2-yl)-1-cyclopropyl-3-(1-methylcyclopropyl)-1H-pyrazole-5-carboxamide] | – | 63 | 22.4 | 3.5 | – | –
CC(C)C[C@H](NC(=O)[C@H]1O[C@@H]1C(=O)O)C(=O)NCCCCN=C(N)N [Compound E64, E64] | – | – | – | – | prevented airway hyperresponsiveness | enhanced viral clearance
NC(=O)c1ncn([C@@H]2O[C@H](CO)[C@@H](O)[C@H]2O)n1 [ribavirin] | – | – | – | – | prevented airway hyperresponsiveness | enhanced viral clearance
